Data as given in patent publication US20230027066A1 (Urovant Sciences GmbH, priority 2019, published 2023).

How the values were obtained:
[1] = Description: A placebo group was included in the main study, and a group that received tolterodine monotherapy was included in the main study and in the extension.
[2] = tested on: men and women with overactive bladder; assay: Phase 3 study (75 mg), patient-reported outcomes (OAB-q LF, PGI); type: in vivo, human; set-up: OAB-q sleep score, improvement greater than placebo / HRQL Total Score, improvement greater than placebo / OAB-q HRQL Total Score, Active - Placebo LS Means Difference: scale not given here
Description: Patients completed paper questionnaires at the site at the start of each required study visit to assess patient-perceived symptom relief, symptom bother, and health-related quality of life at the study visits. […] These included the following questionnaires:
1. Global Impression Items include Patient Global Impression of Severity (PGI-Severity), Patient Global Impression of Control (PGI-Control), Patient Global Impression of Frequency (PGI-Frequency), Patient Global Impression of Leakage (PGI-Leakage), and Patient Global Impression of Change (PGI-Change).
2. Overactive Bladder Questionnaire (OAB-q long form [OAB-q LF], 1-week recall) is a 33-item patient-administered, disease-specific questionnaire that includes a Health-Related QoL (HRQL) scale (25 items) and a Symptom Bother Scale (8 items). The HRQL is a multidomain concept that represents the patient's general perception of the effect of illness and treatment on physical, psychological, and social aspects of life. […] In the present study, the HRQL scale is divided into 4 subscales: Coping, Concern/Worry, Sleep, and Social Interaction. The Coping subscale (also referred to as the coping domain score) was a secondary endpoint, with items scored from 1 (none of the time) to 6 (all the time), with higher scores indicating better QoL. The HRQL total score is calculated by summating the individual HRQL subscale scores. The Symptom Bother Scale items are scored from 1 (not at all) to 6 (a very great deal), with higher Symptom Bother scores indicating greater symptom severity. The instrument was developed and validated in both continent and incontinent OAB patients, including both men and women.
With the exception of the symptom bother score, a responder was defined as having a change from baseline ≥10. For symptom bother score, a responder was defined as having a change from baseline […]. A higher proportion of patients represented a favorable response.

[3] = 50% Total Incontinence Responders, Week 12
[4] = Week 12, responder = change from baseline ≥10

Cc1ccc(O)c([C@H](CCN(C(C)C)C(C)C)c2ccccc2)c1 [Tolterodine ER, tolterodine, reference compound]
frequency of injuries ([1]; Phase 2 study, tolterodine arm vs vibegron): 2.1% | SAEs reported in treatment group, number ([1]; tolterodine 4 mg, main study): 3 | Accidental overdose ([1]; tolterodine ER 4 mg): 6 (2.3) n (%) | Alanine aminotransferase increased ([1]; tolterodine ER 4 mg): 1 (0.4) n (%) | Arthralgia ([1]; tolterodine ER 4 mg): 3 (1.2) n (%) | Aspartate aminotransferase increased ([1]; tolterodine ER 4 mg): 0 (0.0) n (%) | Constipation ([1]; tolterodine ER 4 mg): 5 (1.9) n (%) | Diarrhea ([1]; tolterodine ER 4 mg): 9 (3.5) n (%) | Discontinuation due to AE ([1]; tolterodine ER 4 mg): 4 (1.6) n (%) | Discontinuation due to drug-related AE ([1]; tolterodine ER 4 mg): 0 n (%) | Dizziness ([1]; tolterodine ER 4 mg): 5 (1.9) n (%) | Drug-related AE ([1]; tolterodine ER 4 mg): 42 (16.3) n (%) | Dry eye ([1]; tolterodine ER 4 mg): 10 (3.9) n (%) | Dry mouth ([1]; tolterodine ER 4 mg): 22 (8.6) n (%) | Dysuria ([1]; tolterodine ER 4 mg): 3 (1.2) n (%) | Fatigue ([1]; tolterodine ER 4 mg): 6 (2.3) n (%) | Headache ([1]; tolterodine ER 4 mg): 9 (3.5) n (%) | Nasopharyngitis ([1]; tolterodine ER 4 mg): 4 (1.6) n (%) | Nausea ([1]; tolterodine ER 4 mg): 6 (2.3) n (%) | Osteoarthritis ([1]; tolterodine ER 4 mg): 0 (0.0) n (%) | Pain in extremity ([1]; tolterodine ER 4 mg): 1 (0.4) n (%) | Serious AE ([1]; tolterodine ER 4 mg): 3 (1.2) n (%) | Sinusitis ([1]; tolterodine ER 4 mg): 1 (0.4) n (%) | Subjects with ≥1 AE ([1]; tolterodine ER 4 mg): 116 (45.1) n (%) | Urinary tract infection ([1]; tolterodine ER 4 mg): 12 (4.7) n (%) | OAB-q Coping Subscore, Change from baseline at week 12, LS Means (SE) [2, 3]: 18.5 (1.49) | OAB-q Coping Subscore, Mean [2, 3]: 81.66 (20.882) | OAB-q Symptom Bother Subscore, Change from baseline at week 12, LS Means [2, 3]: −21.7 | OAB-q Symptom Bother Subscore, Mean [2, 3]: 24.70 | Change from Baseline in PGI-Control, LS Mean ([2]; 75% UUI Responders, Week 4): −0.7 (0.07) | PGI-Control, Mean (SD) ([2]; 75% UUI Responders, Week 4): 2.51 (0.907) | Change from Baseline in PGI-Control, LS Mean ([2]; 75% UUI Responders, Week 8): −1.0 (0.07) | PGI-Control, Mean (SD) ([2]; 75% UUI Responders, Week 8): 2.18 (0.861) | Change from Baseline in PGI-Control, LS Mean ([2]; 75% UUI Responders, Week 12): −1.1 (0.07) | OAB-q Coping Subscore, Change from baseline at week 12, LS Means (SE) ([2]; 75% UUI Responders, Week 12): 18.4 (1.73) | OAB-q Coping Subscore, Mean (SD) ([2]; 75% UUI Responders, Week 12): 83.05 (20.409) | OAB-q Symptom Bother Subscore, Change from Baseline at Week 12, LS Means (SE) ([2]; 75% UUI Responders, Week 12): −22.7 (1.60) | OAB-q Symptom Bother Subscore, Mean (SD) ([2]; 75% UUI Responders, Week 12): 22.59 (17.919) | PGI-Control, Mean (SD) ([2]; 75% UUI Responders, Week 12): 2.05 (0.862) | OAB-q Concern Subscore, Week 12 Mean (SD) ([2]; Week 12): 80.93 (21.467) | OAB-q Concern responders, Difference from Placebo ([2]; Week 12): 7.2 | OAB-q Concern, Active - Placebo LS Means Difference ([2]; Week 12): 4.4 | OAB-q Concern, change from baseline LS Means (SE) ([2]; Week 12): 14.7(1.32) | OAB-q Coping Score, Active - Placebo LS Means Difference ([2]; Week 12): 3.1 | OAB-q Coping Score, change from baseline LS Means (SE) ([2]; Week 12): 15.9 (1.39) | OAB-q Coping Sub score, Week 12 Mean (SD) ([2]; Week 12): 77.77 (23.439) | OAB-q Coping responders, Difference from Placebo ([2]; Week 12): 6.9 | OAB-q HRQL Total Score, Active - Placebo LS Means Difference ([2]; Week 12): 2.9 | OAB-q HRQL Total Score, change from baseline LS Means (SE) ([2]; Week 12): 13.6 (1.19) | OAB-q Sleep Subscore, Week 12 Mean (SD) ([2]; Week 12): 74.25 (23.140) | OAB-q Sleep responders, Difference from Placebo ([2]; Week 12): −0.5 | OAB-q Sleep, Active - Placebo LS Means Difference ([2]; Week 12): 2.6 | OAB-q Sleep, change from baseline LS Means (SE) ([2]; Week 12): 12.9 (1.42) | OAB-q Social Interaction Subscore, Week 12 Mean (SD) ([2]; Week 12): 88.35 (18.214) | OAB-q Social Interaction responders, Difference from Placebo ([2]; Week 12): 2.2 | OAB-q Social Interaction, Active - Placebo LS Means Difference ([2]; Week 12): 0.6 | OAB-q Social Interaction, change from baseline LS Means (SE) ([2]; Week 12): 9.4 (1.03) | OAB-q Symptom Bother Subscore, Week 12 Mean (SD) ([2]; Week 12): 29.33 (19.568) | OAB-q Symptom Bother responders, Difference from Placebo ([2]; Week 12): 8.2 | OAB-q Symptom Bother, Active - Placebo LS Means Difference ([2]; Week 12): −4.6 | OAB-q Symptom Bother, change from baseline LS Means (SE) ([2]; Week 12): −17.4 (1.31) | OAB-q Total HRQL Score, Week 12 Mean (SD) ([2]; Week 12): 80.07 (19.826) | OAB-q Total HRQL responders, Difference from Placebo ([2]; Week 12): 3.1 | OAB-q Symptom Bother responders, % ([2]; Week 12, responder = change from baseline ≤−10): (66.5) % | OAB-q Concern responders, % [2, 4]: (57.0) % | OAB-q Coping responders, % [2, 4]: (61.3) %
